Data published in patent US20030050247A1, “Chemically-modified peptides, compositions, and methods of production and use” (priority 2000, published 2003).
Values after ≈ are worked out from the molar mass of the structure shown. Read-outs that look alike come from different tables or passages of the source. The star is where a group is joined. Octanoyl = CCCCCCCC(=O)*

Columns and labels:
[1] = test system: E. coli; assay: Antimicrobial activity of peptide-containing fiber (textiles); conditions: Example 17
[2] = test system: Salmonella typhimurium and Clostridium botulinum; format: cell-based; conditions: food preservative; Example 16
[3] = test system: K. pneumoniae and P. aeruginosa; assay: Antimicrobial assay (MIC, growth inhibited by >90%), Examples 2 and 3; conditions: for efficacy (in words): Example 3, second octyl group, compared to the -NH2 peptides, Trp replaced
[4] = test system: Aspergillus niger (ATCC 16888); conditions: 22 h at 30° C.
[5] = test system: P. aeruginosa; assay: Antimicrobial assay, bacterial paper mill isolates; format: cell-based, Pseudomonas aeruginosa; conditions: paper mill isolate; TGE medium; 30° C.
[6] = test system: Desulfovibrio desulfuricans (ATCC 7757)
[7] = test system: C. acidivorans; assay: Antimicrobial assay, bacterial paper mill isolates; format: cell-based, Comamonas acidivorans; conditions: paper mill isolate; TGE medium; 30° C.
[8] = test system: X. maltophila; assay: Antimicrobial assay, bacterial paper mill isolates; format: cell-based, Xanthomonas maltophila; conditions: paper mill isolate; TGE medium; 37° C.
[9] = test system: Bacillus; assay: Antimicrobial assay, bacterial cooling tower isolates; format: cell-based; conditions: cooling tower isolate; TGE; 18 hr at 35° C.
[10] = test system: Aeromonas; conditions: 18 h
[11] = test system: E. cloacae; assay: Antimicrobial assay, bacterial paper mill isolates; format: cell-based, Enterobacter cloacae; conditions: paper mill isolate; TGE medium; 30° C.
[12] = in vitro; conditions: Vero cells (ATCC CCL81), non-infected

For Octanoyl-Arg-Trp-NH2, which MIC [1] is on record?
Its MIC is “≦ 15 μg/ml”.

What about the MIC [2] of the same compound?
Its MIC is “≦ 15 μg/ml”.

What about the “peptide efficacy (MIC values, in words)” value ([3]; Example 2, acyl chain length and amino acid composition) of the same compound?
Its value is “greatest activity”.

With Octanoyl-Arg-Tyr-NH-octyl as the compound, how does the “efficacy (in words)” value [3] read?
Its value is “enhanced efficacy”.

For Octanoyl-Arg-Arg-Arg-NH-octyl, which MIC [1] is on record?
The MIC was “≦ 8 μg/ml”.

For Nonanoyl-Arg-Arg-NH-nonyl, which MIC [1] is on record?
The MIC was “≦ 2 μg/ml”.

What does the source list for Octanoyl-Arg-Phe-NH-octyl?
MIC [2]: ≦ 8 μg/ml; efficacy (in words) [3]: enhanced efficacy

With Octanoyl-Arg-Ala-NH-octyl as the compound, how does the MIC [2] read?
Its MIC is “≦ 15 μg/ml”.

Which MIC [2] does the source give for Octanoyl-Lys-Arg-NH-octyl here?
The MIC was “≦ 4 μg/ml”.

For Decanoyl-Arg-NH-decyl, which MIC [1] is on record?
The MIC was “≦ 15 μg/ml”.

Which MIC [1] does the source give for “Octanoyl-Arg-Phe-Phe-Arg-NH-octyl (RFFR; HELM PEPTIDE1{[CCCCCCCC(=O)[*:2]].R.F.F.R.[CCCCCCCCN[*:1]]}$$$$V2.0; SMILES CCCCCCCCNC(=O)[C@H](CCCNC(=N)N)NC(=O)[C@H](Cc1ccccc1)NC(=O)[C@H](Cc1ccccc1)NC(=O)[C@H](CCCNC(=N)N)NC(=O)CCCCCCC)” here?
The MIC was “≦ 4 μg/ml”.

Which MIC [2] does the source give for CCCCCCCCCNC(=O)[C@H](CCCNC(=N)N)NC(=O)CCCCCCCC [Nonanoyl-Arg-NH-nonyl] here?
The MIC was “≦ 4 μg/ml”.

And the Growth was inhibited ([4]; 1 μg/ml of peptide)?
The Growth was inhibited was 43%.

And the Growth was inhibited ([4]; 7.8 μg/ml)?
Its Growth was inhibited is 83%.

And the Growth was inhibited ([4]; concentrations as low as 15.6 μg/ml)?
The Growth was inhibited was 98%.

What does the source list for Octanoyl-Arg-Trp-Phe-NH2?
MIC [1]: ≦ 15 μg/ml; MIC [2]: ≦ 15 μg/ml

Which MIC [2] does the source give for Octanoyl-Arg-Cys-NH-octyl here?
Its MIC is “≦ 15 μg/ml”.

Which MIC [5] does the source give for CCCCCCCCNC(=O)[C@H](CCCNC(=N)N)NC(=O)CCCCCCC [Octanoyl-R-NH-octyl, Octanoyl-Arg-NH-octyl] here?
Its MIC is “≦10 μg/ml”.

And the MIC [6]?
Its MIC is 62.5 to 125 µg/mL.

What about the MIC [7] of the same compound?
Its MIC is >313 µg/mL.

What about the MIC [8] of the same compound?
The MIC was “≦5 μg/ml”.

And the MIC [9]?
Its MIC is 15.6 µg/mL (≈ 37.9 µM).

And the MIC [10]?
Its MIC is 62.5 µg/mL (≈ 152 µM).

What about the MIC [11] of the same compound?
The MIC was >313 µg/mL.

For CCCCCCCCNC(=O)[C@H](CCCNC(=N)N)NC(=O)[C@H](CCCNC(=N)N)NC(=O)CCCCCCC [Octanoyl-Arg-Arg-NH-octyl], which viability at 125 ppm [12] is on record?
Its viability at 125 ppm is 59%.
